Values joined by “and” are separate entries in the source; they are usually repeats but may differ in a detail not shown here. Equal entries are not always repeated.
Test system: HEK293 cells
Assay: Endogenous ceramide, HexCer and SM levels in cells treated 24 h, targeted LC-MS/MS
Assay type: cell-based
Set-up: Cer 18:1/24:0 content in HEK293 cells / Cer 18:1/24:1 content in HEK293 cells / HexCer 18:1/16:0 content in HEK293 cells / HexCer 18:1/18:0 content in HEK293 cells / HexCer 18:1/20:0 content in HEK293 cells / HexCer 18:1/22:0 content in HEK293 cells / Cer 18:1/16:0 content in HEK293 cells / Cer 18:1/18:0 content in HEK293 cells / Cer 18:1/20:0 content in HEK293 cells / Cer 18:1/22:0 content in HEK293 cells: unit not given here
Procedure: Lipids were then extracted using MTBE/methanol/water as described above.
HEK293 cell culture experiment: Levels of each lipid in P053-treated HEK293 cells were normalised to the mean of the vehicle control group, and each concentration was compared to the control using ANOVA with Dunnett’s post-test. P values were adjusted for multiple comparisons in GraphPad PRISM.
Supplementary Figure 1. Ceramide, SM, and HexCer levels in HEK293 cells treated with
P053. Absolute lipid levels were determined by targeted LC-MS/MS, relative to external
standard curves. Results are mean ± SEM (n = 4) from one of two identical experiments.
Statistically significant results, based on two independent experiments, are as indicated in
Figure 2b-d. Raw data for these figures is provided in Supplementary Data File 1.

[1] = HEK293 cells, 24 h, P053 300 nM
[2] = P053 10 nM, replicates, raw data Suppl Fig 1

Compound: C[C@@](N)(CO)CCc1ccc(OCc2ccc(Cl)c(Cl)c2)cc1 [P053, (S)-2-amino-4-(4-(3,4-dichlorobenzyloxy)phenyl)-2-methylbutan-1-ol]
- 16:0 SM level [1]: 91.5762 percentage of the vehicle control group and 97.3304 percentage of the vehicle control group and 95.7086 percentage of the vehicle control group and 90.4865 percentage of the vehicle control group and 94.7045 percentage of the vehicle control group and 94.6107 percentage of the vehicle control group and 97.4329 percentage of the vehicle control group
- 16:1 SM level [1]: 95.4131 percentage of the vehicle control group and 93.1931 percentage of the vehicle control group and 97.1412 percentage of the vehicle control group and 89.2518 percentage of the vehicle control group and 106.305 percentage of the vehicle control group and 110.099 percentage of the vehicle control group and 114.576 percentage of the vehicle control group
- 18:0 Cer level [1]: 21.4642 percentage of the vehicle control group and 24.1123 percentage of the vehicle control group and 20.5881 percentage of the vehicle control group and 19.7155 percentage of the vehicle control group and 31.2852 percentage of the vehicle control group and 28.1026 percentage of the vehicle control group and 22.7669 percentage of the vehicle control group
- 18:0 HexCer level [1]: 20.413 percentage of the vehicle control group and 33.7976 percentage of the vehicle control group and 27.9895 percentage of the vehicle control group and 24.1749 percentage of the vehicle control group and 31.4424 percentage of the vehicle control group and 25.6474 percentage of the vehicle control group and 28.2273 percentage of the vehicle control group
- 18:0 SM level [1]: 51.9053 percentage of the vehicle control group and 55.6537 percentage of the vehicle control group and 52.9265 percentage of the vehicle control group and 58.2406 percentage of the vehicle control group and 58.0965 percentage of the vehicle control group and 68.5828 percentage of the vehicle control group
- 18:1 SM level [1]: 49.0849 percentage of the vehicle control group and 55.9252 percentage of the vehicle control group and 57.6407 percentage of the vehicle control group and 49.9379 percentage of the vehicle control group and 59.4579 percentage of the vehicle control group and 65.5511 percentage of the vehicle control group and 62.889 percentage of the vehicle control group
- 20:0 Cer level [1]: 93.6887 percentage of the vehicle control group and 101.721 percentage of the vehicle control group and 118.09 percentage of the vehicle control group and 85.7665 percentage of the vehicle control group and 100.615 percentage of the vehicle control group and 64.6288 percentage of the vehicle control group and 92.3762 percentage of the vehicle control group
- 20:0 SM level [1]: 118.407 percentage of the vehicle control group and 108.075 percentage of the vehicle control group and 104.904 percentage of the vehicle control group and 101.736 percentage of the vehicle control group and 91.4298 percentage of the vehicle control group and 108.941 percentage of the vehicle control group and 75.5566 percentage of the vehicle control group
- 22:0 Cer level [1]: 118.325 percentage of the vehicle control group and 95.8434 percentage of the vehicle control group and 96.1691 percentage of the vehicle control group and 93.2377 percentage of the vehicle control group and 117.011 percentage of the vehicle control group and 126.355 percentage of the vehicle control group and 127.853 percentage of the vehicle control group
- 22:0 HexCer level [1]: 109.712 percentage of the vehicle control group and 101.896 percentage of the vehicle control group and 93.6786 percentage of the vehicle control group and 100.98 percentage of the vehicle control group and 134.335 percentage of the vehicle control group and 123.952 percentage of the vehicle control group and 138.922 percentage of the vehicle control group
- 22:0 SM level [1]: 115.888 percentage of the vehicle control group and 97.5579 percentage of the vehicle control group and 89.8927 percentage of the vehicle control group and 119.666 percentage of the vehicle control group and 127.143 percentage of the vehicle control group and 125.883 percentage of the vehicle control group and 147.638 percentage of the vehicle control group
- 22:1 SM level [1]: 108.27 percentage of the vehicle control group and 122.085 percentage of the vehicle control group and 110.7 percentage of the vehicle control group and 101.001 percentage of the vehicle control group and 122.515 percentage of the vehicle control group and 112.931 percentage of the vehicle control group and 116.965 percentage of the vehicle control group
- 24:0 HexCer level [1]: 104.713 percentage of the vehicle control group and 95.2413 percentage of the vehicle control group and 95.3365 percentage of the vehicle control group and 92.7673 percentage of the vehicle control group and 114.448 percentage of the vehicle control group and 102.627 percentage of the vehicle control group and 132.114 percentage of the vehicle control group
- 24:0 SM level [1]: 113.274 percentage of the vehicle control group and 99.4416 percentage of the vehicle control group and 98.6316 percentage of the vehicle control group and 91.5407 percentage of the vehicle control group and 114.934 percentage of the vehicle control group and 115.44 percentage of the vehicle control group and 155.315 percentage of the vehicle control group
- 24:1 Cer level [1]: 111.319 percentage of the vehicle control group and 96.194 percentage of the vehicle control group and 99.387 percentage of the vehicle control group and 100.62 percentage of the vehicle control group and 125.506 percentage of the vehicle control group and 116.048 percentage of the vehicle control group and 122.55 percentage of the vehicle control group
- 24:1 HexCer level [1]: 99.7739 percentage of the vehicle control group and 98.9226 percentage of the vehicle control group and 100.626 percentage of the vehicle control group and 98.0727 percentage of the vehicle control group and 98.7766 percentage of the vehicle control group and 107.494 percentage of the vehicle control group and 117.137 percentage of the vehicle control group
- 24:1 SM level [1]: 105.1 percentage of the vehicle control group and 102.826 percentage of the vehicle control group and 108.435 percentage of the vehicle control group and 97.4023 percentage of the vehicle control group and 115.741 percentage of the vehicle control group and 108.576 percentage of the vehicle control group and 128.227 percentage of the vehicle control group
- Cer 18:1/16:0 content in HEK293 cells [2]: 22.4895 and 20.1065 and 20.2227 and 20.5646
- Cer 18:1/18:0 content in HEK293 cells [2]: 6.1592 and 6.073 and 6.699 and 5.451
- Cer 18:1/20:0 content in HEK293 cells [2]: 0.6713 and 0.9209 and 0.7221 and 0.8599
- Cer 18:1/22:0 content in HEK293 cells [2]: 56.12 and 63.3729 and 65.2079 and 63.3152
